Measurements taken from ChEMBL document CHEMBL1151552, “Inhibitory activities of herpes simplex viruses type 1 and 2 and human cytomegalovirus by stereoisomers of 2-deoxy-3-oxa-5(E)-(2-bromovinyl)uridines and their 4-thio analogues” (Bioorg Med Chem Lett, 1994).
Converted amounts (≈) assume the structure as drawn.

Tests used:
F2002 cell line = experiment: Inhibitory activity against human cytomegalo virus (WFI strain) in a plaque reduction assay in flow 2002 human fibroblast cells; type: functional, cell-based
[1] = Cytotoxicity in Flow 2002 cell line; type: cell-based; conditions: human, Flow 2002 cells
Vero [2] = experiment: Inhibitory activity against Herpes Simplex virus type 1 (186 strain) in a Plaque reduction Assay in vero cells; type: functional, cell-based; conditions: Chlorocebus sabaeus
Vero [3] = experiment: Inhibitory activity against Herpes Simplex virus type 1 (KOS strain) in a Plaque reduction Assay in vero cells; type: functional, cell-based; conditions: Chlorocebus sabaeus
Vero [4] = experiment: Cytotoxicity in Vero cell line; type: functional; conditions: Chlorocebus sabaeus

Question: With `O=c1[nH]c(=O)n([C@H]2CO[C@H](CO)S2)cc1/C=C/Br` as the compound, how does the IC50 (F2002 cell line) read?
Answer: > 100 µg/mL

Question: And the CC50 [1]?
Answer: > 100 µg/mL

Question: What about the IC50 (Vero [2]) of the same compound?
Answer: 30 µg/mL (≈ 89.5 µM)

Question: And the IC50 (Vero [3])?
Answer: > 30 µg/mL

Question: What about the CC50 (Vero [4]) of the same compound?
Answer: 100 µg/mL (≈ 298 µM)

Question: Which results are given for `O=c1[nH]c(=O)n([C@H]2CO[C@@H](CO)S2)cc1/C=C/Br`?
Answer: IC50 (F2002 cell line): > 100 µg/mL; CC50 [1]: 100 µg/mL (≈ 298 µM); IC50 (Vero [2]): 2.9 µg/mL (≈ 8.65 µM); IC50 (Vero [3]): > 30 µg/mL; CC50 (Vero [4]): 100 µg/mL (≈ 298 µM)

Question: Which IC50 (F2002 cell line) does the source give for `O=c1[nH]c(=O)n([C@@H]2CO[C@@H](CO)O2)cc1/C=C/Br` here?
Answer: 25 µg/mL (≈ 78.3 µM)

Question: What about the CC50 [1] of the same compound?
Answer: 100 µg/mL (≈ 313 µM)

Question: And the IC50 (Vero [2])?
Answer: > 30 µg/mL

Question: What about the IC50 (Vero [3]) of the same compound?
Answer: > 30 µg/mL

Question: What about the CC50 (Vero [4]) of the same compound?
Answer: 100 µg/mL (≈ 313 µM)

Question: Which results are given for `Nc1nc2c(ncn2COC(CO)CO)c(=O)[nH]1` [GANCICLOVIR]?
Answer: IC50 (F2002 cell line): 0.1 µg/mL (≈ 0.392 µM); CC50 [1]: > 100 µg/mL

Question: With `Nc1nc2c(ncn2COCCO)c(=O)[nH]1` [ACYCLOVIR] as the compound, how does the IC50 (Vero [2]) read?
Answer: 0.5 µg/mL (≈ 2.22 µM)

Question: What about the IC50 (Vero [3]) of the same compound?
Answer: 0.1 µg/mL (≈ 0.444 µM)

Question: What about the CC50 (Vero [4]) of the same compound?
Answer: > 10 µg/mL

Question: With `O=c1[nH]c(=O)n([C@@H]2CO[C@@H](CO)S2)cc1/C=C/Br` as the compound, how does the IC50 (F2002 cell line) read?
Answer: 80 µg/mL (≈ 239 µM)

Question: What about the CC50 [1] of the same compound?
Answer: 100 µg/mL (≈ 298 µM)

Question: What about the IC50 (Vero [2]) of the same compound?
Answer: > 10 µg/mL

Question: And the IC50 (Vero [3])?
Answer: > 10 µg/mL

Question: And the CC50 (Vero [4])?
Answer: 30 µg/mL (≈ 89.5 µM)

Question: With `O=c1[nH]c(=O)n([C@H]2CO[C@H](CO)O2)cc1/C=C/Br` as the compound, how does the IC50 (F2002 cell line) read?
Answer: > 30 µg/mL

Question: And the CC50 [1]?
Answer: 30 µg/mL (≈ 94 µM)

Question: What about the IC50 (Vero [2]) of the same compound?
Answer: > 30 µg/mL

Question: And the IC50 (Vero [3])?
Answer: 3.4 µg/mL (≈ 10.7 µM)

Question: What about the CC50 (Vero [4]) of the same compound?
Answer: 100 µg/mL (≈ 313 µM)

Question: Which results are given for `O=c1[nH]c(=O)n([C@@H]2CO[C@H](CO)S2)cc1/C=C/Br`?
Answer: IC50 (F2002 cell line): > 100 µg/mL; CC50 [1]: 100 µg/mL (≈ 298 µM); IC50 (Vero [2]): > 100 µg/mL; IC50 (Vero [3]): > 100 µg/mL; CC50 (Vero [4]): > 100 µg/mL

Question: For `O=c1[nH]c(=O)n([C@H]2CO[C@@H](CO)O2)cc1/C=C/Br`, which IC50 (F2002 cell line) is on record?
Answer: > 100 µg/mL

Question: What about the CC50 [1] of the same compound?
Answer: > 100 µg/mL

Question: And the IC50 (Vero [2])?
Answer: > 30 µg/mL

Question: What about the IC50 (Vero [3]) of the same compound?
Answer: > 30 µg/mL

Question: What about the CC50 (Vero [4]) of the same compound?
Answer: 100 µg/mL (≈ 313 µM)

Question: What does the source list for `O=c1[nH]c(=O)n([C@@H]2CO[C@H](CO)O2)cc1/C=C/Br`?
Answer: IC50 (F2002 cell line): 5 µg/mL (≈ 15.7 µM); CC50 [1]: 30 µg/mL (≈ 94 µM); IC50 (Vero [2]): > 30 µg/mL; IC50 (Vero [3]): 0.3 µg/mL (≈ 0.94 µM); CC50 (Vero [4]): 100 µg/mL (≈ 313 µM)
